From patent US20230295130A1, “COMPOUND USEFUL AS CDK7 KINASE INHIBITOR AND USE THEREOF” (TYK MEDICINES, INC., priority 2020, published 2023)

Columns and labels:
[1] = system: breast cancer cells MDA-MB 231; experiment: Cell anti-proliferation experiment, MTT (Table 4); assay type: cell-based, human; details: Homo sapiens, MDA-MB-231, 72 h, incubate 3 days
Description: (§1) Human breast cancer cells MDA-MB 231, MDA-MB453, ovarian cancer cells OVCAR3, colorectal cancer cells HCT-116 and lung cancer cells NCI-H209 were purchased from BNCC. DMEM medium (Bio-Channel), DMSO (dimethyl sulfoxide), MTT (thiazole blue), 0.25% EDTA-Tripsin (pancreatin digestive juice), 1×PBS (phosphate buffer, PH7.2), 96-well plate (Corning), fetal bovine serum (FBS), 10,000 U/mL penicillin-G/streptomycin, high-speed freezing centrifuge (EPPENDORF 5810R), enzyme-linked immunosorbent assay (Tecan Spark).
(§2) • A) Tumor cells were cultured to 80-90% density in DMEM (high sugar, containing 10% FBS and 100 U/mL penicillin-G/streptomycin) at 37° C., 5% CO2 and saturated humidity. • B) The culture medium was removed from the 10 cm culture dish. • C) Cells were washed with 10 ml 1×PBS. • D) 4 ml of 0.25% EDTA-Tripsin was added to an incubator to digest pancreatin for 5 minutes at 37° C. and 5% CO2, transferred to a 15 ml centrifuge tube, centrifuged for 5 minutes at 200 g, and supernatant was discarded to obtain cell precipitation. • E) The cell precipitation was resuspended with 4 ml DMEM medium, counted and adjusted to 50,000 cells/ml. • F) Cell suspension was added to a 96-well plate with a volume of 100 μL per well and cultured overnight in a 5% CO2 incubator at 37° C.
(§3) • A) Preparing the tested compound gradient dilution solution: TY 2600 1 mM, TY 2601 1 mM, TY-2648a 1 mM, TY-2648b 1 mM and TY-2650 1 mM storage solutions were prepared. Then 1.5 μl of storage solution was dissolved in 1.5 ml of DMSO-free culture solution, and then performed 3-fold continuous gradient dilution with 0.1% DMSO culture solution for a total of 9 concentrations. The concentrations of the diluted compound were as follows: • 333.33 nM, 111.11 nM, 37.03 nM, 12.35 nM, 4.15 nM, 1.37 nM, 0.46 nM, 0.15 nM • B) After full mixing, 100 μL of culture compound solution was taken to replace the culture solution in the cell culture plate, with 4 duplicated wells at each concentration; • C) The cells were transferred to incubator to incubate for 3 days.
(§4) • A) The cell culture plate was taken out and added with 5 mg/ml MTT 10 μL in the biosafety cabinet; • B) The cell culture plate was put back into the incubator and continued to incubate for 3 hours; • C) The cell culture plate was taken out to remove the culture solution, 100 μL isopropanol (containing 0.4 mM HCl, 0.1% NP-40) was added, shaking at room temperature for 30 minutes; • D) The absorbance value was measured at 570 nm on TECAN enzyme linked immunosorbent assay.

[2] = system: breast cancer cells MDA-MB453; experiment: Cell anti-proliferation experiment, MTT (Table 4); assay type: cell-based, human; details: Homo sapiens, MDA-MB-453, 72 h, incubate 3 days
Description: as §1, §2, §3, §4

[3] = system: ovarian cancer cells OVCAR3; experiment: Cell anti-proliferation experiment, MTT (Table 4); assay type: cell-based, human; details: Homo sapiens, OVCAR-3, 72 h, incubate 3 days
Description: as §1, §2, §3, §4

[4] = system: colorectal cancer cells HCT-116; experiment: Cell anti-proliferation experiment, MTT (Table 4); assay type: cell-based, human; details: Homo sapiens, HCT-116, 72 h, incubate 3 days
Description: as §1, §2, §3, §4

[5] = target: T1, CDK7/Cyclin H/MAT1 kinase (Homo sapiens (Human), UniProt P50613); experiment: Enzyme activity test, mobility shift assay (Table 3); assay type: biochemical; details: 2 mM ATP, pre-incubated 0 and 60 minutes
Procedure: IC50 values of the compounds for CDK7 kinase were detected in Wuxi Biortus Biosciences Co. Ltd.
The compound powder was dissolved in 100% DMSO to prepare a 10 mM storage solution. The storage solution was further diluted to 0.5 mM as the initial concentration, and continuously diluted 3 times to obtain 10 compound solutions with different concentrations. The compound and enzyme were pre-incubated for 0 minutes and 60 minutes, respectively, using duplicate detection.
was used as a positive control, using Mobility shift say method, to detect CDK kinase (such as CDK7, CDK9, CDK12 and CDK2) activity of the compound.

[6] = target: CDK12 (aa686-1082)/Cyclin K (Homo sapiens (Human), UniProt Q9NYV4); experiment: Enzyme activity test, mobility shift assay (Table 1); assay type: biochemical; details: 2 mM ATP; read-out: CDK12 kinase IC50
Summary of the method: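 Mobility shift kinase assay on CDK9/Cyclin T1 and CDK12 (aa686-1082)/Cyclin K. Ten-point 3-fold dilution series started from a 0.5 mM intermediate solution in DMSO, with compound–enzyme pre-incubation of 0 or 60 min, in duplicate. Staurosporine served as positive control.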

[7] = system: breast cancer cells MDA-MB 231; experiment: Cell anti-proliferation experiment, MTT (Table 2); assay type: cell-based; details: Homo sapiens, MDA-MB-231, 72 h, incubate 3 days
Description: as §1, with “OVCAR3 and A2780,” for “OVCAR3,”, “and WiDr, and” for “and”, “cell Calu-6” for “cells NCI-H209”
as §2, with “1. Cell Plating • A)” for “• A)”
(§5) Compound Dilution • A) Preparing the tested compound gradient dilution solution: the tested compounds were prepared into 10 mM and 1 mM storage solution respectively. Firstly, 1 μl and 0.5 μl of 10 mM storage solution were dissolved in 1 ml of DMSO-free culture solution, respectively, to obtain diluted compounds with concentrations of 10 and 5 μM. Then, 1.5 μl of 1 mM storage solution was dissolved in 1.5 ml of DMSO-free culture solution to obtain a dilution compound with a concentration of 1 μM, and then diluted with a 3-fold continuous gradient with […] culture solution for a total of 7 concentrations. The concentrations of all 10 diluted compounds mentioned above were as follows: • 10 μM, 5 μM, 1 μM, 333.33 nM, 111.11 nM, 37.03 nM, 12.35 nM, 4.15 nM, 1.37 nM, 0.46 nM • B) After full mixing, 100 μL of culture compound solution was taken to replace the culture solution in the cell culture plate, with 4 duplicated wells at each concentration; • C) The cells were transferred to incubator to incubate for 3 days.
as §4, with “3. MTT Detection • A)” for “• A)”

[8] = system: breast cancer cells MDA-MB453; experiment: Cell anti-proliferation experiment, MTT (Table 2); assay type: cell-based; details: Homo sapiens, MDA-MB-453, 72 h, incubate 3 days
Description: as §1, with “OVCAR3 and A2780,” for “OVCAR3,”, “and WiDr, and” for “and”, “cell Calu-6” for “cells NCI-H209”
as §2, with “1. Cell Plating • A)” for “• A)”
as §5
as §4, with “3. MTT Detection • A)” for “• A)”

lung cancer cell Calu-6 = experiment: Cell anti-proliferation experiment, MTT (Table 2); assay type: cell-based; details: Homo sapiens, Calu-6, 72 h, incubate 3 days
Description: as §1, with “OVCAR3 and A2780,” for “OVCAR3,”, “and WiDr, and” for “and”, “cell Calu-6” for “cells NCI-H209”
as §2, with “1. Cell Plating • A)” for “• A)”
as §5
as §4, with “3. MTT Detection • A)” for “• A)”

[9] = system: ovarian cancer cells OVCAR3; experiment: Cell anti-proliferation experiment, MTT (Table 2); assay type: cell-based; details: Homo sapiens, OVCAR-3, 72 h, incubate 3 days
Description: as §1, with “OVCAR3 and A2780,” for “OVCAR3,”, “and WiDr, and” for “and”, “cell Calu-6” for “cells NCI-H209”
as §2, with “1. Cell Plating • A)” for “• A)”
as §5
as §4, with “3. MTT Detection • A)” for “• A)”

[10] = system: colorectal cancer cells HCT-116; experiment: Cell anti-proliferation experiment, MTT (Table 2); assay type: cell-based; details: Homo sapiens, HCT-116, 72 h, incubate 3 days
Description: as §1, with “OVCAR3 and A2780,” for “OVCAR3,”, “and WiDr, and” for “and”, “cell Calu-6” for “cells NCI-H209”
as §2, with “1. Cell Plating • A)” for “• A)”
as §5
as §4, with “3. MTT Detection • A)” for “• A)”

[11] = system: colorectal cancer cells WiDr; experiment: Cell anti-proliferation experiment, MTT (Table 2); assay type: cell-based, human; details: Homo sapiens, WiDr, 72 h, incubate 3 days
Description: as §1, with “OVCAR3 and A2780,” for “OVCAR3,”, “and WiDr, and” for “and”, “cell Calu-6” for “cells NCI-H209”
as §2, with “1. Cell Plating • A)” for “• A)”
as §5
as §4, with “3. MTT Detection • A)” for “• A)”

[12] = system: ovarian cancer cells A2780; experiment: Cell anti-proliferation experiment, MTT (Table 2); assay type: cell-based, human; details: Homo sapiens, A2780, 72 h, incubate 3 days
Description: as §1, with “OVCAR3 and A2780,” for “OVCAR3,”, “and WiDr, and” for “and”, “cell Calu-6” for “cells NCI-H209”
as §2, with “1. Cell Plating • A)” for “• A)”
as §5
as §4, with “3. MTT Detection • A)” for “• A)”

CDK9/Cyclin Tl = CDK9/Cyclin Tl (Homo sapiens (Human), UniProt P50750); experiment: Enzyme activity test, mobility shift assay (Table 1); assay type: biochemical; details: 2 mM ATP; read-out: CDK9 kinase IC50
Summary of the method: (§6)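 Human CDK9/Cyclin T1 and CDK2/Cyclin E1 activity measured by mobility shift assay. Compounds tested as 10-point, 3-fold dilution series starting at 0.5 mM (diluted from 10 mM DMSO stock), in duplicate, with 0 min or 60 min compound–enzyme pre-incubation.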

CDK2/Cyclin El = CDK2/Cyclin El (Homo sapiens (Human), UniProt P24941); experiment: as above; assay type: biochemical; details: 2 mM ATP; read-out: CDK2 kinase IC50
Summary of the method: as §6

[13] = target: T1, CDK7/Cyclin H/MAT1 kinase; experiment: as above; assay type: biochemical; details: 2 mM ATP; pre-incubated 0 and 60 minutes

CDK9/Cyclin Tl, sequence (P50750 whole entry): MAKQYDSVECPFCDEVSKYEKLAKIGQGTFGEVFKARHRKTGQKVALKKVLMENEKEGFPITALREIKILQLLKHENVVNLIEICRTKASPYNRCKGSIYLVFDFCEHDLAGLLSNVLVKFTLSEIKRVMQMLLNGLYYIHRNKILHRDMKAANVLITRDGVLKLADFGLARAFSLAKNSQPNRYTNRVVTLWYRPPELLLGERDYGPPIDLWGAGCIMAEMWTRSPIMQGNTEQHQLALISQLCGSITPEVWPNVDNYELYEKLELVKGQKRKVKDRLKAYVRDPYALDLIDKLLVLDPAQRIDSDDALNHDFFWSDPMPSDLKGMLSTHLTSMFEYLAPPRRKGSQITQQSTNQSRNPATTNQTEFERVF
CDK9/Cyclin Tl, sequence (O60563 whole entry partner): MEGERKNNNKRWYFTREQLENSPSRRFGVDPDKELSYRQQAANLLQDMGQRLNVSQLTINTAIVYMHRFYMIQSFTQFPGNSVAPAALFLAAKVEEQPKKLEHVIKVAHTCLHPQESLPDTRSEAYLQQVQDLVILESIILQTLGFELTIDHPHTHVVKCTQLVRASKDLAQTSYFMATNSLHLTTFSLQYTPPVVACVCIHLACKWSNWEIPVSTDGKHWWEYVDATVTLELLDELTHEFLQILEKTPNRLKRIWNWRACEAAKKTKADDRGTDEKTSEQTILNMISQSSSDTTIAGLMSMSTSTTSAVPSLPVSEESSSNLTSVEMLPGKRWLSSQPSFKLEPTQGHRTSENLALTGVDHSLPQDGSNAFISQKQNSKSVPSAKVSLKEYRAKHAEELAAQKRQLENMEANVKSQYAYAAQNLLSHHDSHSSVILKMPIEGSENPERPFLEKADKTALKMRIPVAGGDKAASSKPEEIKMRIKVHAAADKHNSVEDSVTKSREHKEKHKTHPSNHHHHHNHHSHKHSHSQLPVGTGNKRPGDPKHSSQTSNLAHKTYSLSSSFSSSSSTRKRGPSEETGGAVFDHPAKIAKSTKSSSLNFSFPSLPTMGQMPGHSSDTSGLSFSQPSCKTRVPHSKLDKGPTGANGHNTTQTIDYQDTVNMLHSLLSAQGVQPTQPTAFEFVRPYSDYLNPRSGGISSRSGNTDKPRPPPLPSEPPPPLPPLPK
CDK12 (aa686-1082)/Cyclin K, sequence (Q9NYV4 686-1082): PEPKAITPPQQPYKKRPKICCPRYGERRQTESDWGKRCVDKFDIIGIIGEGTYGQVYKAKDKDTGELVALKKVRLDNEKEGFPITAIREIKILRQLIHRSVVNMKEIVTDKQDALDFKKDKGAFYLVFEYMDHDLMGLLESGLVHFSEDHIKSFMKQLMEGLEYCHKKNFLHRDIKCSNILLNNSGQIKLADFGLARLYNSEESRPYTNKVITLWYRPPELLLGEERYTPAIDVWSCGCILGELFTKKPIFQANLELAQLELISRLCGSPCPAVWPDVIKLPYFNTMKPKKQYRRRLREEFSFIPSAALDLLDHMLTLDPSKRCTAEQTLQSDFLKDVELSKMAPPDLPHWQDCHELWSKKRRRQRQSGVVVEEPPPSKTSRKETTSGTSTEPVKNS
CDK12 (aa686-1082)/Cyclin K, sequence (O75909 whole entry partner, the tested form may be a part): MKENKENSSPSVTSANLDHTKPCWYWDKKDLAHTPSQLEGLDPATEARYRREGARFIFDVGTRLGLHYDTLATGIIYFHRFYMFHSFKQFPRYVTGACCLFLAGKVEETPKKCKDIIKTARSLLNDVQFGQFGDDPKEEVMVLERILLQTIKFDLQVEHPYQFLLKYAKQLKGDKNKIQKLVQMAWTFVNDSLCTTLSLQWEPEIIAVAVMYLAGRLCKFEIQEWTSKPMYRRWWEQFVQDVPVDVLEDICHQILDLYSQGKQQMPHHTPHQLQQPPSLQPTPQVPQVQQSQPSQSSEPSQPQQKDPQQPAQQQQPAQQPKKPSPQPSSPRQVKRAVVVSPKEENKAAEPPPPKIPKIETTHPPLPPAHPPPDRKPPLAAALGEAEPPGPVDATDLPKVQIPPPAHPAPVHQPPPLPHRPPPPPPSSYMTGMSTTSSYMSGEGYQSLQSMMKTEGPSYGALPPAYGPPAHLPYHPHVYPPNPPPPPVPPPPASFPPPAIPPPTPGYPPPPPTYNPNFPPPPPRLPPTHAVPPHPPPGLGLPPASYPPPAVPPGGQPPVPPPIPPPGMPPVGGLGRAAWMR
T1 sequence (P50613 whole entry): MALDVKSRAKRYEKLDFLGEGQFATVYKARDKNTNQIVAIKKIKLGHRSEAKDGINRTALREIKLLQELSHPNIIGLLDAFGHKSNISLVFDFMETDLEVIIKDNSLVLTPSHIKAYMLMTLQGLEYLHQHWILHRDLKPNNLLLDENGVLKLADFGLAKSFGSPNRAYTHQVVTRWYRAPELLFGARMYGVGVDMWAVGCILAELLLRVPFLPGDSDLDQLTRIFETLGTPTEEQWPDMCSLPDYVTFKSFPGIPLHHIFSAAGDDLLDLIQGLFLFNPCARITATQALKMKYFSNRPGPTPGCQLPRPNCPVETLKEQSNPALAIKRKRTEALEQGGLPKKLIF
T1 sequence (P51946 whole entry partner): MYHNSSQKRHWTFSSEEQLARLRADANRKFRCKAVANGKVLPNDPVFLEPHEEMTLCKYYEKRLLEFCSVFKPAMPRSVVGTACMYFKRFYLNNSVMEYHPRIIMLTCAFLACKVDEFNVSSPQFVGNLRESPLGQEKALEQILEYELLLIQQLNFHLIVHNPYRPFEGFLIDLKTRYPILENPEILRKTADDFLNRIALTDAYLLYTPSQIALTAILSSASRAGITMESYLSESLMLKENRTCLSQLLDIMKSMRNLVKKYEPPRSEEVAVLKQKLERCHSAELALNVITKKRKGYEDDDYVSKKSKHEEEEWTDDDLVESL
T1 sequence (P51948 whole entry partner): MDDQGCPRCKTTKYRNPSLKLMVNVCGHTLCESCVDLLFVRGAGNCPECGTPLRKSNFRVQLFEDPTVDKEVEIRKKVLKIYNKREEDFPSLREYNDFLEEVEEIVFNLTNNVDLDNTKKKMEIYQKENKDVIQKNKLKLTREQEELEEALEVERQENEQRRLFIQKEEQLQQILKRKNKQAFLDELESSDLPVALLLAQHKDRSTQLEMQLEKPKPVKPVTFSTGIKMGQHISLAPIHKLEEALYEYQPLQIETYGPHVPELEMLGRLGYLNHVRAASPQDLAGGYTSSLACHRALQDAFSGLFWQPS

Compound | IC50 [1] [nM] | IC50 [2] [nM] | IC50 [3] [nM] | IC50 [4] [nM] | IC50 [5] [nM] | IC50 [6] [nM] | IC50 [7] [nM] | IC50 [8] [nM] | IC50 (lung cancer cell Calu-6) [nM] | IC50 [9] [nM] | IC50 [10] [nM] | IC50 [11] [nM] | IC50 [12] [nM] | IC50 (CDK9/Cyclin Tl) [nM] | IC50 (CDK2/Cyclin El) [nM] | IC50 [13] [nM]
CCOC(=O)Nc1ccc2c(-c3nc(N[C@H]4CCCNC4)ncc3C(F)(F)F)c[nH]c2c1Br [Example T-42] |  |  |  |  |  | > 500 | 181 | 77.9 | 110 | 98.4 | 137 | 22.2 | 12.3 | > 500 | > 500 | < 50
COC(=O)Nc1ccc2c(-c3nc(N[C@H]4CCCNC4)ncc3C(F)(F)F)c[nH]c2c1Cl [Example T-79] |  |  |  |  |  | > 500 | 144 | 53.1 | 114 | 69.8 | 35.3 | 16.3 | 14.2 | > 500 | > 500 | < 50

Now from value to compound:

IC50 [1] [nM] | IC50 [2] [nM] | IC50 [3] [nM] | IC50 [4] [nM] | IC50 [5] [nM] | IC50 [6] [nM] | IC50 [7] [nM] | IC50 [8] [nM] | IC50 (lung cancer cell Calu-6) [nM] | IC50 [9] [nM] | IC50 [10] [nM] | IC50 [11] [nM] | IC50 [12] [nM] | IC50 (CDK9/Cyclin Tl) [nM] | IC50 (CDK2/Cyclin El) [nM] | IC50 [13] [nM] | Compound
10 to 500 | 10 to 500 | 10 to 500 | 10 to 500 | < 10 |  |  |  |  |  |  |  |  |  |  |  | CP(C)(=O)c1c(C#N)ccc2c(-c3nc(N[C@H]4CCC(=O)NC4)ncc3C(F)(F)F)c[nH]c12 [Example 48]
 |  |  |  |  | > 500 | 119 | 17.7 | 107 | 51.1 | 89.2 | 28.3 | 16.1 | > 500 | > 500 | < 50 | COC(=O)Nc1ccc2c(-c3nc(N[C@H]4CCCNC4)ncc3C(F)(F)F)c[nH]c2c1C [Example T-52]
 |  |  |  |  | > 500 | 75.5 | 23.8 | 57 | 38.8 | 55.4 | 6.35 | 12.5 | > 500 | > 500 | < 50 | COCCOC(=O)Nc1ccc2c(-c3nc(N[C@H]4CCCNC4)ncc3C(F)(F)F)c[nH]c2c1Br [Example T-62]
